Test system: amylase
Assay: Amylase activity retention in detergent use solution (4000 ppm, 5 GPG water; ethylidene substrate EPS, HEPES buffer pH 8.0)
Assay type: biochemical
Description: The enzyme activities in the detergents with different phosphonate levels were tested at 4000 ppm in 5 grains per gallon (GPG) water at 120° F. with various time points collected up to 4 hours, after a use solution was generated from the detergent composition. During the tests, the samples at different time points were collected and immediately frozen in an acetone/dry ice bath and stored in −80° C. before the activity of the enzyme was evaluated. For the use of such an assay, t=0 min was the reference point for 100% enzyme activity.
Assays of enzyme activity in formulations (% retention) were conducted to simulate a presoak condition in a beaker using the chemistry, temperature, and pH conditions relevant to manual warewash or presoak applications. Enzyme activity is an indicator of the stability of the enzyme in the detergent, specifically in an aqueous use solution within a sump (which is under conditions of high pH, temperature and dilution).
Enzyme activity under presoak or manual warewash conditions was traced quantitatively using a standard protease assay. Samples were prepared under bench top conditions, whereby the use solution from a detergent composition or detergent was obtained and maintained at a presoak or manual warewash temperature in a stirring water bath. After the time course for assessing enzyme stability is initiated, aliquots were taken at various time points and flash-frozen. A time=0 sample was prepared for each series by dissolving the detergent formulation at room temperature, mixing thoroughly, and flash freezing. Samples were thawed and diluted as necessary in an assay buffer usually for use in the protease assay. A glycine buffer at pH 9.0 is used here. The assay monitored the direct reaction of the protease on a small, commercially available peptidyl substrate, with liberation of the product providing correlation to the active enzyme content. The product was detected using a plate reader with an appreciable dynamic range (upper absorbance limit of the instrument >3.5). Enzyme activity levels were assessed relative to a calibration curve with average values for replicate tests used to map protease stability under presoak or manual warewash use conditions. Enzyme retention at each time point was calculated as the % enzyme activity relative to the time=0 sample.
The analysis by lipase and amylase assay was conducted similarly, except with a different substrate and buffers. For lipase activity, the substrate is p-nitrophenyl valerate, and for amylase, the substrate is an ethylidene substrate (EPS). The buffer used in lipase assay is TRIS (Tris(hydroxymethyl)aminomethane) buffer at pH 8.0, and in amylase assay HEPES (4-(2-hydroxyethyl)-1-piperazineethanesulfonic acid) buffer at pH 8.0.

[1] = All Ash formula, phosphonate 0.3 wt-%, use solution at 120° F., time 0 min
[2] = All Ash formula, phosphonate 0.3 wt-%, use solution at 120° F., time 5 min
[3] = All Ash formula, phosphonate 0.3 wt-%, use solution at 120° F., time 10 min
[4] = All Ash formula, phosphonate 0.3 wt-%, use solution at 120° F., time 20 min
[5] = All Ash formula, phosphonate 0.3 wt-%, use solution at 120° F., time 40 min
[6] = All Ash formula, phosphonate 0.3 wt-%, use solution at 120° F., time 60 min
[7] = All Ash formula, phosphonate 0.3 wt-%, use solution at 120° F., time 90 min
[8] = All Ash formula, phosphonate 0.3 wt-%, use solution at 120° F., time 120 min
[9] = All Ash formula, phosphonate 0.3 wt-%, use solution at 120° F., time 150 min
[10] = All Ash formula, phosphonate 0.3 wt-%, use solution at 120° F., time 180 min
[11] = All Ash formula, phosphonate 0.3 wt-%, use solution at 120° F., time 210 min
[12] = All Ash formula, phosphonate 0.3 wt-%, use solution at 120° F., time 240 min
[13] = base formula, phosphonate 0.3 wt-%, use solution at 120° F., time 0 min
[14] = base formula, phosphonate 0.3 wt-%, use solution at 120° F., time 5 min
[15] = base formula, phosphonate 0.3 wt-%, use solution at 120° F., time 10 min
[16] = base formula, phosphonate 0.3 wt-%, use solution at 120° F., time 20 min
[17] = base formula, phosphonate 0.3 wt-%, use solution at 120° F., time 40 min
[18] = base formula, phosphonate 0.3 wt-%, use solution at 120° F., time 60 min
[19] = base formula, phosphonate 0.3 wt-%, use solution at 120° F., time 90 min
[20] = base formula, phosphonate 0.3 wt-%, use solution at 120° F., time 120 min
[21] = base formula, phosphonate 0.3 wt-%, use solution at 120° F., time 150 min
[22] = base formula, phosphonate 0.3 wt-%, use solution at 120° F., time 180 min
[23] = base formula, phosphonate 0.3 wt-%, use solution at 120° F., time 210 min
[24] = base formula, phosphonate 0.3 wt-%, use solution at 120° F., time 240 min
[25] = base formula, phosphonate 0.6 wt-%, use solution at 120º F., time 0 min
[26] = base formula, phosphonate 0.6 wt-%, use solution at 120º F., time 5 min
[27] = base formula, phosphonate 0.6 wt-%, use solution at 120º F., time 10 min
[28] = base formula, phosphonate 0.6 wt-%, use solution at 120º F., time 20 min
[29] = base formula, phosphonate 0.6 wt-%, use solution at 120º F., time 40 min
[30] = base formula, phosphonate 0.6 wt-%, use solution at 120º F., time 60 min
[31] = base formula, phosphonate 0.6 wt-%, use solution at 120º F., time 90 min
[32] = base formula, phosphonate 0.6 wt-%, use solution at 120º F., time 120 min
[33] = base formula, phosphonate 0.6 wt-%, use solution at 120º F., time 150 min
[34] = base formula, phosphonate 0.6 wt-%, use solution at 120º F., time 180 min
[35] = base formula, phosphonate 0.6 wt-%, use solution at 120º F., time 210 min
[36] = base formula, phosphonate 0.6 wt-%, use solution at 120º F., time 240 min
[37] = base formula, phosphonate at 0.1% elemental phosphorus level, use solution at 120º F., time 5 min
[38] = base formula, phosphonate at 0.1% elemental phosphorus level, use solution at 120º F., time 10 min
[39] = base formula, phosphonate at 0.1% elemental phosphorus level, use solution at 120º F., time 20 min
[40] = base formula, phosphonate at 0.1% elemental phosphorus level, use solution at 120º F., time 40 min
[41] = base formula, phosphonate at 0.1% elemental phosphorus level, use solution at 120º F., time 60 min
[42] = base formula, phosphonate at 0.1% elemental phosphorus level, use solution at 120º F., time 90 min
[43] = base formula, phosphonate at 0.1% elemental phosphorus level, use solution at 120º F., time 120 min
[44] = base formula, phosphonate at 0.1% elemental phosphorus level, use solution at 120º F., time 180 min
[45] = base formula, phosphonate at 0.1% elemental phosphorus level, use solution at 120º F., time 210 min
[46] = base formula, phosphonate at 0.1% elemental phosphorus level, use solution at 120º F., time 240 min

O=P(O)(O)CN(CP(=O)(O)O)CP(=O)(O)O [ATMP, Aminotri (methylene phosphonic acid)]
Relative Amylase Enzyme Activity [1]: 98.49% | Relative Amylase Enzyme Activity [2]: 100.00% | Relative Amylase Enzyme Activity [3]: 98.40% | Relative Amylase Enzyme Activity [4]: 97.90% | Relative Amylase Enzyme Activity [5]: 91.03% | Relative Amylase Enzyme Activity [6]: 86.91% | Relative Amylase Enzyme Activity [7]: 87.68% | Relative Amylase Enzyme Activity [8]: 80.93% | Relative Amylase Enzyme Activity [9]: 83.80% | Relative Amylase Enzyme Activity [10]: 80.91% | Relative Amylase Enzyme Activity [11]: 84.34% | Relative Amylase Enzyme Activity [12]: 83.21% | amylase stability in all ash formula (all ash formula, versus same composition with PBTC or HEDP without amine(s), FIG. 4D): more stable | Relative Amylase Enzyme Activity [13]: 100.00% | Relative Amylase Enzyme Activity [14]: 89.47% | Relative Amylase Enzyme Activity [15]: 82.94% | Relative Amylase Enzyme Activity [16]: 79.67% | Relative Amylase Enzyme Activity [17]: 90.79% | Relative Amylase Enzyme Activity [18]: 89.94% | Relative Amylase Enzyme Activity [19]: 94.47% | Relative Amylase Enzyme Activity [20]: 95.08% | Relative Amylase Enzyme Activity [21]: 94.00% | Relative Amylase Enzyme Activity [22]: 90.87% | Relative Amylase Enzyme Activity [23]: 94.61% | Relative Amylase Enzyme Activity [24]: 96.54% | Relative Amylase Enzyme Activity [25]: 100.00% | Relative Amylase Enzyme Activity [26]: 87.10% | Relative Amylase Enzyme Activity [27]: 92.19% | Relative Amylase Enzyme Activity [28]: 80.12% | Relative Amylase Enzyme Activity [29]: 77.64% | Relative Amylase Enzyme Activity [30]: 91.13% | Relative Amylase Enzyme Activity [31]: 92.19% | Relative Amylase Enzyme Activity [32]: 93.02% | Relative Amylase Enzyme Activity [33]: 101.54% | Relative Amylase Enzyme Activity [34]: 80.83% | Relative Amylase Enzyme Activity [35]: 92.78% | Relative Amylase Enzyme Activity [36]: 86.75% | Relative Amylase Enzyme Activity (base formula, phosphonate at 0.1% elemental phosphorus level, use solution at 120º F., time 0 min): 82.19% | Relative Amylase Enzyme Activity [37]: 100.00% | Relative Amylase Enzyme Activity [38]: 107.32% | Relative Amylase Enzyme Activity [39]: 106.35% | Relative Amylase Enzyme Activity [40]: 100.35% | Relative Amylase Enzyme Activity [41]: 106.09% | Relative Amylase Enzyme Activity [42]: 101.79% | Relative Amylase Enzyme Activity [43]: 104.38% | Relative Amylase Enzyme Activity (base formula, phosphonate at 0.1% elemental phosphorus level, use solution at 120º F., time 150 min): 101.75% | Relative Amylase Enzyme Activity [44]: 103.89% | Relative Amylase Enzyme Activity [45]: 100.38% | Relative Amylase Enzyme Activity [46]: 107.10%

CC(O)(P(=O)(O)O)P(=O)(O)O [HEDP, 1-hydroxy ethylidene-1,1-diphosphonic acid]
Relative Amylase Enzyme Activity [1]: 92.90% | Relative Amylase Enzyme Activity [2]: 100.00% | Relative Amylase Enzyme Activity [3]: 97.04% | Relative Amylase Enzyme Activity [4]: 87.85% | Relative Amylase Enzyme Activity [5]: 70.85% | Relative Amylase Enzyme Activity [6]: 55.60% | Relative Amylase Enzyme Activity [7]: 63.30% | Relative Amylase Enzyme Activity [8]: 58.18% | Relative Amylase Enzyme Activity [9]: 54.50% | Relative Amylase Enzyme Activity [10]: 45.78% | Relative Amylase Enzyme Activity [11]: 44.79% | Relative Amylase Enzyme Activity [12]: 41.67% | Relative Amylase Enzyme Activity [13]: 100.00% | Relative Amylase Enzyme Activity [14]: 81.99% | Relative Amylase Enzyme Activity [15]: 90.32% | Relative Amylase Enzyme Activity [16]: 95.23% | Relative Amylase Enzyme Activity [17]: 84.92% | Relative Amylase Enzyme Activity [18]: 72.27% | Relative Amylase Enzyme Activity [19]: 79.95% | Relative Amylase Enzyme Activity [20]: 84.46% | Relative Amylase Enzyme Activity [21]: 79.54% | Relative Amylase Enzyme Activity [22]: 84.18% | Relative Amylase Enzyme Activity [23]: 69.49% | Relative Amylase Enzyme Activity [24]: 88.63% | Relative Amylase Enzyme Activity [25]: 100.00% | Relative Amylase Enzyme Activity [26]: 96.09% | Relative Amylase Enzyme Activity [27]: 99.71% | Relative Amylase Enzyme Activity [28]: 91.20% | Relative Amylase Enzyme Activity [29]: 94.89% | Relative Amylase Enzyme Activity [30]: 97.28% | Relative Amylase Enzyme Activity [31]: 94.67% | Relative Amylase Enzyme Activity [32]: 88.12% | Relative Amylase Enzyme Activity [33]: 90.33% | Relative Amylase Enzyme Activity [34]: 86.96% | Relative Amylase Enzyme Activity [35]: 96.92% | Relative Amylase Enzyme Activity [36]: 92.50% | Relative Amylase Enzyme Activity [37]: 100.00% | Relative Amylase Enzyme Activity [38]: 97.58% | Relative Amylase Enzyme Activity [39]: 90.30% | Relative Amylase Enzyme Activity [40]: 81.48% | Relative Amylase Enzyme Activity [41]: 83.84% | Relative Amylase Enzyme Activity [42]: 85.26% | Relative Amylase Enzyme Activity [43]: 82.59% | Relative Amylase Enzyme Activity [44]: 75.47% | Relative Amylase Enzyme Activity [45]: 85.77% | Relative Amylase Enzyme Activity [46]: 81.23%
